Values after ≈ are worked out from the molar mass of the structure shown. Read-outs that look alike come from different tables or passages of the source.
Legend:
Format in all cases: cell-based
[1] = tested on: cefepime-resistant Klebsiella pneumoniae expressing different types of β-lactamases; test: microbe, parasite or virus in culture; settings: for MIC: Klebsiella pneumoniae; for MIC, Cefepime + compound (8 ug/ml): inhibitor at 8 ug/ml
Experimental: (§1) The biosafety cabinet was sterilized with ultraviolet light for 30 min. Glycerol tubes were taken out of a −80° C. freezer, and streaks were gently formed in the glycerol tubes using inoculating loops. Bacteria were inoculated onto MHIIA solid plates. The plates were incubated overnight in a 37° C. incubator.
30 μL of compound stock solution was added to column 1 of a 96-well v-bottom plate, and DMSO was added to columns 2-10. Subsequently, 15 μL was transferred from column 1 to column 2 using a pipette and well mixed gently, and then 15 μL of solution was transferred from column 2 to column 3: the serial dilution process proceeded to column 10 (200×β-lactamase inhibitor working solutions were prepared). The antibiotic was diluted with a corresponding solvent to form a 1.6 mg/mL solution.

[2] = tested on: cefepime-resistant Pseudomonas aeruginosa; test: MIC in combination with cefepime for drug-resistant bacteria (Test Example 2); settings: read-out: concentration for achieving a bacteriostatic effect where the CPM MIC is fixed at 8 μg/mL
Experimental: as §1
(§2) 30 μL of compound stock solution was added to column 1 of a 96-well v-bottom plate, and DMSO was added to columns 2-10. Subsequently, 15 μL was transferred from column 1 to column 2 using a pipette and well mixed gently, and then 15 μL of solution was transferred from column 2 to column 3; the serial dilution process proceeded to column 10 (200×β-lactamase inhibitor working solutions were prepared). The antibiotic was diluted with a corresponding solvent to form a 1.6 mg/mL solution.

[3] = tested on: cefepime-resistant Acinetobacter baumannii; test: as above; settings: Acinetobacter baumannii, with CPM 8 μg/mL, read-out: concentration for achieving a bacteriostatic effect where the CPM MIC is fixed at 8 μg/mL
Experimental: as §1, §2

[4] = tested on: cefepime-resistant Escherichia coli; test: as above; settings: for MIC: Escherichia coli, with CPM 8 μg/mL, read-out: concentration for achieving a bacteriostatic effect where the CPM MIC is fixed at 8 μg/mL
Experimental: as §1, §2

[5] = tested on: cefepime-resistant Klebsiella pneumoniae; test: as above; settings: for MIC: Klebsiella pneumoniae, with CPM 8 μg/mL, read-out: concentration for achieving a bacteriostatic effect where the CPM MIC is fixed at 8 μg/mL
Experimental: as §1, §2

[6] = tested on: Escherichia coli ARLG-2829 (Urine); test: MIC of β-lactamase inhibitors in the presence of antibiotic (Test Example 1); settings: in the presence of Cefepime (8 ug/mL)
Experimental: (§3) • 1) The antibiotics cefepime and biapenem (purchased from MCE Inc.).
as §1
(§4) 30 μL of compound stock solution was added to column 1 of a 96-well v-bottom plate, and DMSO was added to columns 2-10. Subsequently, 15 μL was transferred from column 1 to column 2 using a pipette and well mixed gently, and then 15 μL of solution was transferred from column 2 to column 3: the serial dilution process proceeded to column 10 (200×β-lactamase inhibitor working solutions were prepared). The two antibiotics were diluted with corresponding solvents to form 1.6 mg/mL solutions.
(§5) 1 μL of 200×B-lactamase inhibitor solution and 1 μL of 1.6 mg/mL antibiotic were added to a new 96-well round-bottom plate. The plate that had been incubated overnight was taken out of the incubator, and several monoclones were picked into normal saline using an inoculating loop. The bacterial solution was adjusted to a concentration of about 1.0×10^8CFU/mL and diluted 200-fold with medium, and 198 μL of the resulting bacterial solution was added to the test plate. The test plate was incubated in a 37° C.incubator for 18-24 h. The 96-well plate that had been incubated for 20 h was taken out of the incubator. The concentration that prevented visible bacterial growth was defined as the minimum inhibitory concentration.

[7] = tested on: Klebsiella pneumoniae ATCC BAA-1705; test: as above
Experimental: as §3, §1, §4, §5

[8] = tested on: Klebsiella pneumoniae ATCC BAA-2472; test: as above
Experimental: as §3, §1, §4, §5

[9] = summary in words of Test Example 2
[10] = in the presence of Biapenem (8 ug/mL)
[11] = in the presence of Cefepime (8 ug/mL)

For `O=C(O)c1c(F)ccc2c1OB(O)[C@@H]1C[C@H]21` [QPX-7728], the MIC ([1]; ATCCBAA1705, read-out: MIC, single substance (1-1-Na, QPX7728, CPM), strain ATCC BAA-1705, KPC-2, TEM, SHV, Class A) was 32 µg/mL (≈ 144 µM), the MIC ([1]; ATCCBAA1898, read-out: MIC, single substance (1-1-Na, QPX7728, CPM), strain ATCC BAA-1898, KPC-2, Class A) was 32 µg/mL (≈ 144 µM) and the MIC ([1]; ATCCBAA1899, read-out: MIC, single substance (1-1-Na, QPX7728, CPM), strain ATCC BAA-1899, KPC-2, Class A) was 32 µg/mL (≈ 144 µM). For the same molecule, the MIC ([1]; ATCCBAA2343, read-out: MIC, single substance (1-1-Na, QPX7728, CPM), strain ATCC BAA-2343, KPC, Class A) was 32 µg/mL (≈ 144 µM), the MIC ([1]; ATCCBAA2470, read-out: MIC, single substance (1-1-Na, QPX7728, CPM), strain ATCC BAA-2470, NDM-1, Class B) was 16 µg/mL (≈ 72.1 µM) and the MIC ([1]; read-out: MIC, single substance (1-1-Na, QPX7728, CPM), strain ARLG-1127 (Urine), KPC, KPC-3, TEM, TEM-1, Class A) was 64 µg/mL (≈ 288 µM). For the same molecule, the MIC ([1]; read-out: MIC, single substance (1-1-Na, QPX7728, CPM), strain ARLG-1195, CTM-1 group, SHV, NDM, Class A, B) was 32 µg/mL (≈ 144 µM), the MIC ([1]; read-out: MIC, single substance (1-1-Na, QPX7728, CPM), strain ARLG-1196, CTM-1 group, SHV, NDM, TEM, Class A, B) was 32 µg/mL (≈ 144 µM) and the “MIC, Cefepime + compound (8 ug/ml)” value ([1]; strain ARLG-1127 (Urine), KPC, KPC-3, TEM, TEM-1, Class A) was ≤0.125 µg/mL. For the same molecule, the “MIC, Cefepime + compound (8 ug/ml)” value ([1]; strain ARLG-1195, CTM-1 group, SHV, NDM, Class A, B) was ≤0.125 µg/mL, the “MIC, Cefepime + compound (8 ug/ml)” value ([1]; strain ARLG-1196, CTM-1 group, SHV, NDM, TEM, Class A, B) was ≤0.125 µg/mL and the “MIC, Cefepime + compound (8 ug/ml)” value ([1]; strain ATCC BAA-1705, KPC-2, TEM, SHV, Class A) was ≤0.125 µg/mL. For the same molecule, the “MIC, Cefepime + compound (8 ug/ml)” value ([1]; strain ATCC BAA-1898, KPC-2, Class A) was <0.125 µg/mL, the “MIC, Cefepime + compound (8 ug/ml)” value ([1]; strain ATCC BAA-1899, KPC-2, Class A) was <0.125 µg/mL and the “MIC, Cefepime + compound (8 ug/ml)” value ([1]; strain ATCC BAA-2343, KPC, Class A) was ≤0.125 µg/mL. The “MIC, Cefepime + compound (8 ug/ml)” value ([1]; strain ATCC BAA-2470, NDM-1, Class B) was ≤0.125 µg/mL, the “restore to cefepime antibacterial activity against cefepime-resistant Klebsiella pneumoniae” value ([1]; summary in words of Test Example 3 (sentence runs over b277-b278)) was “significantly” and the MIC ([2]; strain FDA-CDC AR-BANK#0246, with CPM 8 μg/mL) was > 16 µg/mL. For the same molecule, the MIC ([2]; strain FDA-CDC AR-BANK#0439, with CPM 8 μg/mL) was > 16 µg/mL, the MIC ([2]; strain FDA-CDC AR-BANK#0441, with CPM 8 μg/mL) was 2 µg/mL and the MIC ([2]; strain FDA-CDC AR-BANK#0444, with CPM 8 μg/mL) was 4 µg/mL. The MIC ([3]; strain FDA-CDC AR-BANK#0033) was > 16 µg/mL, the MIC ([3]; strain FDA-CDC AR-BANK#0035) was > 16 µg/mL and the MIC ([3]; strain FDA-CDC AR-BANK#0078) was 16 µg/mL. The MIC ([4]; strain FDA-CDC AR-BANK#0055) was 0.5 µg/mL, the MIC ([4]; strain FDA-CDC AR-BANK#0114) was ≤ 0.0156 µg/mL and the MIC ([4]; strain FDA-CDC AR-BANK#0370) was 0.125 µg/mL. For the same molecule, the MIC ([4]; strain FDA-CDC AR-BANK#0371) was ≤ 0.0156 µg/mL, the “restoring to cefepime antibacterial activity against cefepime-resistant Escherichia coli” value [4, 9] was “significantly restore to cefepime antibacterial activity” and the MIC ([5]; strain FDA-CDC AR-BANK#0003) was 0.0312 µg/mL. For the same molecule, the MIC ([5]; strain FDA-CDC AR-BANK#0076) was 0.25 µg/mL, the MIC ([5]; strain FDA-CDC AR-BANK#0080) was 0.5 µg/mL and the MIC ([5]; strain FDA-CDC AR-BANK#0126) was ≤ 0.0156 µg/mL. For the same molecule, the MIC ([5]; strain FDA-CDC AR-BANK#0158) was 0.5 µg/mL, the “restoring to cefepime antibacterial activity against cefepime-resistant Klebsiella pneumoniae” value [5, 9] was “significantly restore to cefepime antibacterial activity” and the Minimum inhibitory concentration [6] was 1 µg/mL. For the same molecule, the Minimum inhibitory concentration [7, 10] was ≤0.03125 µg/mL, the Minimum inhibitory concentration [7, 11] was 0.25 µg/mL and the Minimum inhibitory concentration [8, 10] was 8 µg/mL. For the same molecule, the Minimum inhibitory concentration [8, 11] was 16 µg/mL.

Reference: patent US20240209004A1, “BORIC ACID DERIVATIVE ACTING AS Beta-LACTAMASE INHIBITOR” (TUOJIE BIOTECH (SHANGHAI) CO., LTD., priority 2021, published 2024)
